In PMC10045663, “Synthesis, In Vitro Biological Evaluation of Antiproliferative and Neuroprotective Effects and In Silico Studies of Novel 16E-Arylidene-5α,6α-epoxyepiandrosterone Derivatives” (Biomedicines, 2023):

Assays:
5AR type 2 = test system: 5AR type 2; design: method as in PMID 26377677; details: read-out: IC50 against 5AR type 2; cited from earlier work
[1] = test system: PC-3 cells (androgen-independent prostatic cancer); assay: MTT cell proliferation assay, PC-3 cells; assay type: cell-based; details: Homo sapiens, PC-3; MTT, 72 h, tumoral cells; read-out: Estimated IC50, PC-3
Description: (§1) LNCaP, PC-3, MCF-7, PNT1A, N27, and NHDF cells were obtained from the American Type Culture Collection (ATCC; Manassas, VA, USA) and were cultured in 75 cm^2 culture flasks at 37 °C in a humidified air incubator with 5% CO2. LNCaP, PC-3, PNT1A, and N27 cells, respectively, were cultured in RPMI 1640 medium (Sigma-Aldrich, Inc. St. Louis, MO, USA) with 10% fetal bovine serum (FBS; Sigma-Aldrich, Inc. St. Louis, MO, USA) and 1% of the antibiotic mixture of 10,000 U/mL penicillin G and […] streptomycin (Sp, Sigma-Aldrich, Inc. St. Louis, MO, USA). MCF-7 cells were cultured in DMEM medium (Sigma-Aldrich, Inc. St. Louis, MO, USA) supplemented with 10% fetal bovine serum (FBS; Sigma-Aldrich, Inc. St. Louis, MO, USA) and 1% antibiotic/antimycotic (10,000 U/mL penicillin G, […] streptomycin, and 25 µg/mL amphotericin B: Ab, Sigma-Aldrich, Inc. St. Louis, MO, USA). Finally, NHDF cells were cultured in RPMI 1640 medium supplemented with 10% FBS, 2 mM L-glutamine, 10 mM HEPES, 1 mM sodium pyruvate, and 1% of the antibiotic/antimycotic Ab, and these cells were used in passages 10th to 14th. For all cell types, the medium was renewed every 2 days until cells nearly reached the confluence state. When cells reach approximately 90–95% confluence, they are gently detached by trypsinization (trypsin-EDTA solution: 0.125 g/L of trypsin and 0.02 g/L of EDTA). Before each experiment, viable cells were counted in a Neubauer chamber by a trypan-blue exclusion assay and adequately diluted in the appropriate complete cell culture medium.
(§2) All tested compounds were dissolved in dimethyl sulfoxide (DMSO; Sigma-Aldrich, Inc. St. Louis, MO, USA) at a concentration of 10 mM and stored at 4 °C. From the mother-solutions, the diluted solutions of the compounds, in different concentrations, were prepared in the respective complete culture medium before each experiment.
(§3) After reaching a confluence state, cells were trypsinized and counted by the trypan-blue exclusion assay and then seeded with an initial density of 2 × 10^4 cells/mL in 96-well culture plates (Nunc, Apogent, Denmark) and left to adhere and grow for 48 h. Subsequently, the medium was removed, and the cells were treated with compound solutions (10 and 50 µM for preliminary studies and 0.01, 0.1, 1, 10, 50, and 100 µM for concentration-response studies) in complete culture medium for 72 h. 5-Fluorouracil (5-FU) was used as a positive control, and untreated cells were used as the negative control. Compounds leading to cell proliferation relative to control clearly below 50%, at 10 µM, or clearly below 25%, at 50 µM, in the screening studies were selected to concentration-response studies in tumoral cell lines. Each experiment was performed in quadruplicate and independently at least two times. The in vitro antiproliferative effects were evaluated by the MTT assay (Sigma-Aldrich, Inc. St. Louis, MO, USA). After the incubation period, the medium was removed, and 100 µL of phosphate buffer saline (PBS, NaCl 137 mM; KCl 2.7 mM; Na2HPO4 10 mM; and KH2PO4 1.8 mM in deionized water with a pH adjusted to 7.4) were used to wash the cells. Then, 100 µL of the MTT solution (5 mg/mL) was prepared in the appropriate serum-free medium and added to each well, followed by incubation for 4 h at 37 °C. Hereafter, the MTT containing medium was removed, and the formazan crystals were dissolved in DMSO. Then, the absorbance was measured at 570 nm using a xMarkTM microplate spectrophotometer from BIO-RAD Laboratories. Cell viability values were expressed as percentages relative to the negative control.

[2] = test system: MCF-7 cells (estrogen-responsive breast cancer cells); assay: MTT cell proliferation assay, MCF-7 cells; assay type: cell-based; details: Homo sapiens, MCF7; MTT, 72 h, tumoral cells; read-out: Estimated IC50, MCF-7
Description: as §1, §2, §3

[3] = test system: NHDF cells (normal human dermal fibroblasts); assay: MTT cell proliferation assay, NHDF cells; assay type: cell-based; details: Homo sapiens, NHDF, 72 h, non-tumoral cells, read-out: Estimated IC50, NHDF
Description: as §1, §2, §3

[4] = test system: PNT1A (normal prostate cells); assay: MTT cell proliferation assay, PNT1A cells; assay type: cell-based; details: Homo sapiens, PNT1A, 72 h, non-tumoral cells, read-out: Estimated IC50, PNT1A
Description: as §1, §2, §3

MCF-7 cells [5] = assay: Nearest neighbor distance analysis with ImageJ; assay type: cell-based; details: MCF-7, 1 and 10 µM, 48 h
Description: The nuclear measurements were achieved by converting 16-bit photomicrographs of Hoechst 33342-stained nuclei in different studied conditions into 8-bit images. Then, these imagens were autothresholded to binary photos using the default “Make binary” function of ImageJ (v. 1.49) software (NIH Image, Bethesda, MD, USA). Cell nuclei that are touching were separated and fragments were discarded based on area through “Analyze Particle” function. This function also provides several other information, such as nuclear area (NA), circumference, and form factor [26]. Furthermore, the “Nearest Neighbor Distance” (NND) was determined. This function allows measuring the distance between each cell nucleus and the nearest ones, providing information about cell distribution.

MCF-7 cells [6] = assay: Immunocytochemistry assay, Ki67 staining; assay type: cell-based; details: 48 h
Description: MCF-7 cells were trypsinized and counted by the trypan-blue exclusion assay, and then cells were seeded with an initial density of 3 × 10^4 cells/mL in 24-well culture plates (Nunc, Apogent, Denmark) containing circular coverslips of 10 mm diameter. Following seeding (48 h), cells were treated with 1 and 10 µM concentrations of 5-FU, as positive controls, and steroid 19 for 48 h. Untreated cells were used as a negative control. After this period, photograph shots were acquired at an optical microscope coupled with a digital camera (Supplementary Material, S2). Subsequently, the medium was removed, and cells were fixed with 10% formalin (15 min, room temperature). After fixation, cells were washed three times with PBS, permeabilized, and blocked for non-specific binding sites for 1 h with 0.5% Triton X-100 and 6% BSA at room temperature. Cells were incubated at 4 °C with 30 μL/coverslip of primary antibody, rabbit polyclonal anti-Ki67 (1:50, Abcam Plc.), prepared in 0.3% BSA and 0.1% Triton X-100, overnight. Then, cells were washed three times with PBS and incubated for 1 h, at room temperature, with 30 μL/coverslip of a solution containing the secondary antibody, Alexa Fluor 488 donkey anti-rabbit (1:200, Life Technologies), and the nuclear marker Hoechst-33342 (1:500, Life Technologies) prepared in PBS. Lastly, the coverslips were washed three times with PBS, mounted on a drop of the fluoroshield mounting medium (Abcam, Plc.) on a microscope slide, and left to dry for 24 h. Photomicrographs were taken using an Axio Imager A1 microscope (Carl Zeiss, Göttingen, Germany) with the 40 × objective.

MCF-7 cells [7] = assay: PI incorporation (propidium iodide staining); assay type: cell-based; details: 48 h
Description: After 48 h of being seeded at the same conditions explained in the previous (Section 2.2.4), MCF-7 cells were treated with the steroidal derivatives 19 and 5-FU at 1 and 10 µM and maintained in culture for 48 h. Untreated cells were also used as a negative control. Subsequently, cells were incubated with 20 µL/per well of a propidium iodide solution (PI; 1 mg/mL in PBS; Sigma-Aldrich Co. LLC) for 25 min at 37 °C. Then, the medium was removed, and the cells were fixed with 10% formalin for 15 min at room temperature. Cells were washed three times with PBS and incubated with 30 µL/per coverslip of Hoechst-33342 (1:500) for 10 min. After incubation, cells were washed three times with PBS. Coverslips were mounted on a drop of the fluoroshield mounting medium on a microscope slide, left to dry for 24 h, and then visualized in a Zeiss Axio Imager A1 microscope with the 40× objective.

[8] = test system: N27 (rat dopaminergic neuronal cells); assay: MTT cell proliferation assay, N27 cells; assay type: cell-based; details: Rattus norvegicus, N27, 72 h, non-tumoral cells, read-out: Estimated IC50, N27
Description: as §1, §2, §3

[9] = test system: LNCaP cells (androgen-dependent prostatic cancer); assay: MTT cell proliferation assay, LNCaP cells; assay type: cell-based; details: Homo sapiens, LNCaP; MTT, 72 h, tumoral cells; read-out: Estimated IC50, LNCaP
Description: as §1, §2, §3

[10] = test system: KB (nasopharyngeal epidermoid carcinoma); design: method as in PMID 23635011; details: read-out: IC50 against KB cells; cited from earlier work
[11] = test system: T47-D cells (breast cancer); design: method as in PMID 23635011; details: MTT assay, read-out: IC50 against T47-D cells; cited from earlier work

**Q.** With `C[C@]12CCC3C(C[C@@H]4O[C@@]45C[C@@H](O)CC[C@]35C)C1CC=C2C(=O)COC(=O)c1ccc(F)cc1` (stereo partly drawn) [21(p-fluoro)benzoyloxy-5α,6α-epoxy-3β-hydroxypregna-16-en-20-one] as the compound, how does the IC50 (5AR type 2) read?
**A.** 0.179 µM

**Q.** Which IC50 [1] does the source give for `O=c1[nH]cc(F)c(=O)[nH]1` [Compound 5-FU, 5-Fluorouracil, reference compound] here?
**A.** 21.2 µM

**Q.** And the IC50 [2]?
**A.** 6.3 µM

**Q.** And the IC50 [3]?
**A.** 6.34 µM

**Q.** And the IC50 [4]?
**A.** 6.48 µM

**Q.** What about the “cell distribution (nearest neighbor distance, NND)” value (MCF-7 cells [5]) of the same compound?
**A.** more random distribution with nuclei more spaced

**Q.** What about the “Ki67-positive cells relative to control” value (MCF-7 cells [6]; MCF-7, 1 µM) of the same compound?
**A.** none of the compounds significantly affected

**Q.** And the “Ki67-positive cells relative to control” value (MCF-7 cells [6]; MCF-7, 10 µM)?
**A.** statistically significant decrease

**Q.** What about the “PI-positive cells relative to the negative control” value (MCF-7 cells [7]; MCF-7, 1 µM) of the same compound?
**A.** no significant effect

**Q.** And the “PI-positive cells relative to the negative control” value (MCF-7 cells [7]; MCF-7, 10 µM)?
**A.** significantly increase

**Q.** What about the IC50 [8] of the same compound?
**A.** 3.19 µM

**Q.** What about the IC50 [9] of the same compound?
**A.** 9.43 µM

**Q.** Which IC50 [10] does the source give for `C[C@]12CC[C@H](O)CC1=CCC1C2CC[C@]2(C)C(=O)/C(=C/c3cccc(Cl)c3)CC12` (some centres unmarked) [reference compound] here?
**A.** 0.6 µM

**Q.** What about the IC50 [11] of the same compound?
**A.** 1.7 µM
